Numbers after ± are expanded uncertainties.
Experiment: cn = amount concentration of the nth substance listed, in mol/dm3
Details: 101 kPa, Liquid; for speed of sound: Sing-around technique in a fixed-path interferometer; for mass density: Vibrating tube method

Oc1ccccc1O [1,2-benzenediol] + O
Details | mass density, 283.15 K [kg/m3] | mass density, 293.15 K [kg/m3] | mass density, 298.15 K [kg/m3] | mass density, 303.15 K [kg/m3] | mass density, 313.15 K [kg/m3] | speed of sound, 283.15 K [m/s] | speed of sound, 293.15 K [m/s] | speed of sound, 298.15 K [m/s] | speed of sound, 303.15 K [m/s] | speed of sound, 313.15 K [m/s]
c1 = 0.0354 | 1000.62 ± 0.041 | 999.093 ± 0.041 | 997.92 ± 0.041 | 996.509 ± 0.042 | 993.058 ± 0.042 | 1449.9 ± 1.2 | 1484.1 ± 1.2 | 1498.2 ± 1.2 | 1510.5 ± 1.2 | 1529.9 ± 1.2
c1 = 0.1697 | 1003.9 ± 0.043 | 1002.24 ± 0.042 | 1001.01 ± 0.041 | 999.543 ± 0.041 | 995.992 ± 0.041 | 1457.9 ± 1.2 | 1490.6 ± 1.2 | 1504 ± 1.2 | 1515.7 ± 1.2 | 1534.1 ± 1.2
c1 = 0.346 | 1008.13 ± 0.045 | 1006.3 ± 0.043 | 1004.99 ± 0.043 | 1003.46 ± 0.042 | 999.774 ± 0.041 | 1467.9 ± 1.2 | 1498.7 ± 1.2 | 1511.4 ± 1.2 | 1522.2 ± 1.2 | 1539.2 ± 1.2
c1 = 0.4721 | 1011.09 ± 0.046 | 1009.14 ± 0.048 | 1007.78 ± 0.046 | 1006.19 ± 0.046 | 1002.41 ± 0.042 | 1474.5 ± 1.2 | 1504.1 ± 1.2 | 1516.2 ± 1.2 | 1526.6 ± 1.2 | 1542.6 ± 1.2
c1 = 0.5008 | 1011.78 ± 0.047 | 1009.79 ± 0.043 | 1008.42 ± 0.043 | 1006.82 ± 0.042 | 1003.02 ± 0.042 | 1476.5 ± 1.2 | 1505.4 ± 1.2 | 1517.3 ± 1.2 | 1527.5 ± 1.2 | 1543.4 ± 1.2
c1 = 0.6589 | 1015.4 ± 0.048 | 1013.26 ± 0.047 | 1011.82 ± 0.046 | 1010.15 ± 0.045 | 1006.23 ± 0.044 | 1484 ± 1.2 | 1511.8 ± 1.2 | 1523 ± 1.2 | 1532.7 ± 1.2 | 1547.3 ± 1.2
c1 = 0.7524 | 1017.53 ± 0.049 | 1015.29 ± 0.047 | 1013.81 ± 0.047 | 1012.11 ± 0.046 | 1008.12 ± 0.045 | 1488.5 ± 1.2 | 1515.4 ± 1.2 | 1526.3 ± 1.2 | 1535.5 ± 1.2 | 1549.5 ± 1.2

Oc1cccc(O)c1 [1,3-benzenediol] + O
Details | mass density, 283.15 K [kg/m3] | mass density, 293.15 K [kg/m3] | mass density, 298.15 K [kg/m3] | mass density, 303.15 K [kg/m3] | mass density, 313.15 K [kg/m3] | speed of sound, 283.15 K [m/s] | speed of sound, 293.15 K [m/s] | speed of sound, 298.15 K [m/s] | speed of sound, 303.15 K [m/s] | speed of sound, 313.15 K [m/s]
c1 = 0.0479 | 1000.93 ± 0.04 | 999.387 ± 0.041 | 998.206 ± 0.041 | 996.776 ± 0.041 | 993.338 ± 0.041 | 1449.5 ± 1.2 | 1483.7 ± 1.2 | 1497.8 ± 1.2 | 1510 ± 1.2 | 1529.5 ± 1.2
c1 = 0.101 | 1002.08 ± 0.041 | 1000.51 ± 0.04 | 999.325 ± 0.04 | 997.875 ± 0.04 | 994.393 ± 0.041 | 1451.5 ± 1.2 | 1485.2 ± 1.2 | 1499.1 ± 1.2 | 1511.2 ± 1.2 | 1530.3 ± 1.2
c1 = 0.1786 | 1003.79 ± 0.042 | 1002.17 ± 0.041 | 1000.95 ± 0.04 | 999.476 ± 0.04 | 995.941 ± 0.041 | 1454.3 ± 1.2 | 1487.3 ± 1.2 | 1500.9 ± 1.2 | 1512.8 ± 1.2 | 1531.4 ± 1.2
c1 = 0.3402 | 1007.38 ± 0.043 | 1005.58 ± 0.042 | 1004.28 ± 0.042 | 1002.77 ± 0.041 | 999.12 ± 0.04 | 1459.9 ± 1.2 | 1491.6 ± 1.2 | 1504.7 ± 1.2 | 1515.9 ± 1.2 | 1533.7 ± 1.2
c1 = 0.4522 | 1009.8 ± 0.044 | 1007.9 ± 0.043 | 1006.56 ± 0.043 | 1005 ± 0.042 | 1001.29 ± 0.041 | 1463.5 ± 1.2 | 1494.5 ± 1.2 | 1507.1 ± 1.2 | 1518 ± 1.2 | 1535.2 ± 1.2
c1 = 0.5654 | 1012.22 ± 0.046 | 1010.22 ± 0.045 | 1008.84 ± 0.044 | 1007.25 ± 0.043 | 1003.46 ± 0.042 | 1467.2 ± 1.2 | 1497.3 ± 1.2 | 1509.6 ± 1.2 | 1520.1 ± 1.2 | 1536.6 ± 1.2
c1 = 0.7623 | 1016.36 ± 0.048 | 1014.19 ± 0.047 | 1012.74 ± 0.046 | 1011.08 ± 0.045 | 1007.17 ± 0.044 | 1473.5 ± 1.2 | 1502 ± 1.2 | 1513.7 ± 1.2 | 1523.7 ± 1.2 | 1539 ± 1.2

Oc1ccc(O)cc1 [1,4-benzenediol] + O
Details | mass density, 283.15 K [kg/m3] | mass density, 293.15 K [kg/m3] | mass density, 298.15 K [kg/m3] | mass density, 303.15 K [kg/m3] | mass density, 313.15 K [kg/m3] | speed of sound, 283.15 K [m/s] | speed of sound, 293.15 K [m/s] | speed of sound, 298.15 K [m/s] | speed of sound, 303.15 K [m/s] | speed of sound, 313.15 K [m/s]
c1 = 0.011 | 1000 ± 0.04 | 998.494 ± 0.045 | 997.334 ± 0.042 | 995.934 ± 0.044 | 992.505 ± 0.042 | 1448.2 ± 1.2 | 1482.6 ± 1.2 | 1496.9 ± 1.2 | 1509.3 ± 1.2 | 1529 ± 1.2
c1 = 0.0342 | 1000.53 ± 0.04 | 999.001 ± 0.04 | 997.84 ± 0.04 | 996.428 ± 0.041 | 992.992 ± 0.042 | 1449.2 ± 1.2 | 1483.3 ± 1.2 | 1497.5 ± 1.2 | 1509.9 ± 1.2 | 1529.4 ± 1.2
c1 = 0.0554 | 1001.02 ± 0.041 | 999.463 ± 0.04 | 998.3 ± 0.04 | 996.878 ± 0.041 | 993.436 ± 0.041 | 1450 ± 1.2 | 1483.9 ± 1.2 | 1498.1 ± 1.2 | 1510.3 ± 1.2 | 1529.8 ± 1.2
c1 = 0.1035 | 1002.11 ± 0.041 | 1000.5 ± 0.04 | 999.338 ± 0.04 | 997.892 ± 0.04 | 994.437 ± 0.041 | 1451.9 ± 1.2 | 1485.2 ± 1.2 | 1499.3 ± 1.2 | 1511.5 ± 1.2 | 1530.6 ± 1.2
c1 = 0.201 | 1004.28 ± 0.042 | 1002.58 ± 0.041 | 1001.41 ± 0.04 | 999.925 ± 0.04 | 996.443 ± 0.041 | 1455.5 ± 1.2 | 1487.6 ± 1.2 | 1501.8 ± 1.2 | 1513.7 ± 1.2 | 1532.2 ± 1.2
c1 = 0.2996 | 1006.44 ± 0.043 | 1004.65 ± 0.042 | 1003.48 ± 0.041 | 1001.95 ± 0.041 | 998.439 ± 0.04 | 1458.9 ± 1.2 | 1489.8 ± 1.2 | 1504.1 ± 1.2 | 1515.7 ± 1.2 | 1533.7 ± 1.2
c1 = 0.4022 | 1008.64 ± 0.044 | 1006.75 ± 0.042 | 1005.59 ± 0.042 | 1004.02 ± 0.041 | 1000.49 ± 0.04 | 1462.2 ± 1.2 | 1492 ± 1.2 | 1506.4 ± 1.2 | 1517.8 ± 1.2 | 1535.2 ± 1.2

O [water] + Oc1ccccc1O
c2 = 0
Details | mass density [kg/m3] | speed of sound [m/s]
283.15 K | 999.749 ± 0.041 | –
293.15 K | 998.252 ± 0.044 | –
313.15 K | 992.273 ± 0.042 | 1528.8 ± 1.2
